Drawing on ChEMBL document CHEMBL3044870, “Effect of clomazone on various market classes of dry beans” (Crop Prot, 2007), this text covers Activity and Crop_yield for one molecule.

Holding throughout (format): organism-based
Common to all, as to conditions: in vivo, other

Series [1] concerns Phaseolus vulgaris. The series is described as follows: Phytotoxicity against Phaseolus vulgaris (pinto beans) assessed as visual crop injury at 2232 g a.i./ha applied pre-emergence 1 to 2 days post-planting measured on day 14 post-emergence relative to control.
Series [2] relates to Phaseolus vulgaris. The series is described as follows: Phytotoxicity against Phaseolus vulgaris (otebo beans) assessed as visual crop injury at 1116 g a.i./ha applied pre-emergence 1 to 2 days post-planting measured on day 14 post-emergence relative to control.
Series [3] has as its system Phaseolus vulgaris. Briefly: Phytotoxicity against Phaseolus vulgaris (dry beans) assessed as visual crop injury at 1116 g a.i./ha applied pre-emergence 1 to 2 days post-planting measured on day 7 post-emergence relative to control.
Series [4] deals with Phaseolus vulgaris. Briefly: Phytotoxicity against Phaseolus vulgaris (otebo beans) assessed as yield at 2232 g a.i./ha applied pre-emergence 1 to 2 days post-planting measured on day 42 post-emergence (reference value: 3.4 tons/ha).
The test system of series [5] is Phaseolus vulgaris. Briefly: Phytotoxicity against Phaseolus vulgaris (brown beans) assessed as yield at 1116 g a.i./ha applied pre-emergence 1 to 2 days post-planting measured on day 42 post-emergence (reference value: 2.5 tons/ha).
The test system of series [6] is Phaseolus vulgaris. The series is described as follows: Phytotoxicity against Phaseolus vulgaris (kidney beans) assessed as shoot dry weight at 1116 g a.i./ha applied pre-emergence 1 to 2 days post-planting measured on day 42 post-emergence (reference value: 145 g/m).
The test system of series [7] is Phaseolus vulgaris. The series is described as follows: Phytotoxicity against Phaseolus vulgaris (black beans) assessed as plant height at 2232 g a.i./ha applied pre-emergence 1 to 2 days post-planting measured on day 28 post-emergence (reference value: 34 cm).

Take `CC1(C)CON(Cc2ccccc2Cl)C1=O` [CLOMAZONE]: the Activity in series [1] was determined as 11%; in series [2] it was 3%; in series [3], 5%; in series [6], 142 g/m; in series [7], 30 cm. Also, the Crop_yield worked out at 3.2 tons/ha in series [4] and 2.6 tons/ha in series [5].
